Experimental data published in PMC10572855, “Phenotypic Test of Benzo[4,5]imidazo[1,2-c]pyrimidinone-Based Nucleoside and Non-Nucleoside Derivatives against DNA and RNA Viruses, Including Coronaviruses” (International Journal of Molecular Sciences, 2023).

Key:
TK+ VZV strain OKA = test: microbe, parasite or virus in culture; type: cell-based, Varicella zoster virus; conditions: Human alphaherpesvirus 3, HEL 299, read-out: Antiviral Activity (EC50) TK+ VZV Strain OKA
[1] = tested on: SARS-CoV-2 UC-1074 (Wuhan); test: Cytopathic effect reduction, SARS-CoV-2 UC-1074 (Wuhan) in Vero cells; type: cell-based; conditions: Severe acute respiratory syndrome coronavirus 2, UC1074, CPE reduced by 50%, 100 TCID50, read-out: Antiviral Activity (EC50) UC-1074 (Wuhan)
[2] = tested on: SARS-CoV-2 B1.1 529 BA.1 (Omicron); test: Cytopathic effect reduction, SARS-CoV-2 B1.1 529 BA.1 (Omicron) in Vero cells; type: cell-based; conditions: Severe acute respiratory syndrome coronavirus 2, CPE reduced by 50%, read-out: Antiviral Activity (EC50) B1.1 529 BA.1 (Omicron)
HEL299 cells = conditions: minimum cytotoxic concentration, microscopically detectable alteration of cell morphology
Method: (§1) Cells were seeded at a rate of 5 × 10^3 cells/well into 96-well plates and allowed to proliferate for 24 h. Then, a medium containing different concentrations of the test compounds, starting at 100 mM, was added. After 3 days of incubation at 37 °C, the cell count was determined with a Beckman Coulter counter or, alternatively, cell viability was determined with the colorimetric formazan-based MTS assay. […] The cytotoxic effects of the compounds were also assessed by evaluating the MCC (minimum cytotoxic concentration that causes a microscopically detectable alteration of cell morphology).

Vero cells = conditions: minimum cytotoxic concentration, microscopically detectable alteration of cell morphology
TK- VZV strain 07-1 [3] = test: microbe, parasite or virus in culture; conditions: Human alphaherpesvirus 3, HEL 299, read-out: Antiviral Activity (EC50) TK− VZV Strain 07-1
[4] = Cell growth inhibition in HEL299 cells, Coulter Counter; type: cell-based; conditions: human, 3 days of cell growth, read-out: Cytotoxicity Cell Growth (CC50)
Method: as §1

HCoV 229E = test: Cytopathic effect reduction, HCoV 229E; type: cell-based, Human coronavirus 229E; conditions: Human coronavirus 229E; reduction of virus-induced cytopathic effect by 50%; virus input 100 TCID50; read-out: Antiviral Activity (EC50) HCoV 229E
HCoV OC43 = test: Cytopathic effect reduction, HCoV OC43; type: cell-based, Human coronavirus OC43; conditions: Betacoronavirus 1, OC43; reduction of virus-induced cytopathic effect by 50%; virus input 100 TCID50; read-out: Antiviral Activity (EC50) HCoV OC43
HCoV NL63 = test: Cytopathic effect reduction, HCoV NL63; type: cell-based, Human coronavirus NL63; conditions: Human coronavirus NL63; reduction of virus-induced cytopathic effect by 50%; virus input 100 TCID50; read-out: Antiviral Activity (EC50) HCoV NL63
RSV (Long) = test: Cytopathic effect reduction, RSV (Long); type: cell-based, Respiratory syncytial virus; conditions: human respiratory syncytial virus; reduction of virus-induced cytopathic effect by 50%; virus input 100 TCID50; read-out: Antiviral Activity (EC50) RSV Long
[5] = Cytotoxicity in HEL299 cells, MTS assay; type: cell-based, Human; conditions: human, HEL299 cells, cell growth reduced by 50%
Method: as §1

[6] = Cytotoxicity in Huh7 cells, MTS assay; type: cell-based, Human; conditions: human, Huh7 cells, cell growth reduced by 50%
Method: as §1

[7] = tested on: SARS-CoV-2 NVDBB-2220 (UK); test: Cytopathic effect reduction, SARS-CoV-2 NVDBB-2220 (UK) in Vero cells; type: cell-based; conditions: Severe acute respiratory syndrome coronavirus 2, CPE reduced by 50%, 100 TCID50, read-out: Antiviral Activity (EC50) NVDBB-2220 (UK)
[8] = tested on: SARS-CoV-2 860-J1 (Delta); test: Cytopathic effect reduction, SARS-CoV-2 860-J1 (Delta) in Vero cells; type: cell-based; conditions: Severe acute respiratory syndrome coronavirus 2, CPE reduced by 50%, 100 TCID50, read-out: Antiviral Activity (EC50) 860-J1 (Delta)
[9] = target: SARS-CoV-2 RdRp (nsp12, nsp7-nsp8) (Severe acute respiratory syndrome coronavirus 2, UniProt P0DTD1); test: In vitro transcription assay with SARS-CoV-2 RdRp; type: biochemical; conditions: RdRp 1 µM, RNA substrate 25 nM, 100 µM NTPs, 30 °C; read-out: IC50, inhibition of RdRp activity (RNA primer extension)
[10] = target: T1, SARS-CoV-2 N-protein and stem-loop vgRNA fragment condensates (Severe acute respiratory syndrome coronavirus 2, UniProt P0DTC9); test: Cell-free LLPS assay, N-protein:vgRNA condensates; type: biochemical
T1 construct: His-tag; made in house

SARS-CoV-2 (all strains) = test: Cytopathic effect reduction, various SARS-CoV-2 strains in Vero cells; type: cell-based; conditions: Severe acute respiratory syndrome coronavirus 2, read-out: EC50 against all SARS-CoV-2 strains
in vitro = conditions: green monkey
TK- VZV strain 07-1 [11] = test: in vitro; conditions: human
[12] = 20 µM compound, 3 µM N-protein, 6 µM RNA

## COc1ccc2c(c1)nc1ccn([C@H]3C[C@H](O)[C@@H](CO)O3)c(=O)n12 [Compound 8a, 2-((2R,4S,5R)-4-hydroxy-5-(hydroxymethyl)tetrahydrofuran-2-yl)-7-methoxybenzo[4,5]imidazo[1,2-c]pyrimidin-1(2H)-one]
TK+ VZV strain OKA
  EC50: > 20 µM
[1]
  EC50: > 20 µM
[2]
  EC50: > 20 µM
HEL299 cells
  Cytotoxicity Cell Morphology (MCC): 100 μM
Vero cells
  Cytotoxicity Cell Morphology (MCC): 100 μM
TK- VZV strain 07-1 [3]
  EC50: > 20 µM

## Nc1nc2c(ncn2COCCO)c(=O)[nH]1 [Aciclovir, reference compound]
[4]
  CC50 at 3 days: > 100 µM
HEL299 cells
  Cytotoxicity Cell Morphology (MCC): >100 μM

## COc1ccc(C(OC[C@H]2O[C@@H](n3ccc4nc5cc(O)ccc5n4c3=O)C[C@@H]2O)(c2ccccc2)c2ccc(OC)cc2)cc1 [Compound 3a, 2-((2R,4S,5R)-5-((bis(4-methoxyphenyl)(phenyl)methoxy)methyl)-4-hydroxytetrahydrofuran-2-yl)-7-hydroxybenzo[4,5]imidazo[1,2-c]pyrimidin-1(2H)-one]
HCoV 229E
  EC50: 8.5 ± 0.36 µM
HCoV OC43
  EC50: < 0.8 µM
HCoV NL63
  EC50: > 100 µM
RSV (Long)
  EC50: 0.67 ± 0.23 µM
[5]
  CC50 at 3 days: > 100 µM
[6]
  CC50 at 3 days: < 0.8 µM
TK+ VZV strain OKA
  EC50: > 4 µM
[1]
  EC50: 8.82 ± 0.21 µM
[7]
  EC50: 8.92 ± 6.38 µM
[8]
  EC50: 11.3 ± 3.5 µM
[2]
  EC50: 10.6 ± 0.7 µM
[9]
  IC50: 94 ± 3 µM
[10]; 20 µM compound
  effect on LLPS / condensates (summary in words): robust LLPS inhibitor
[10]; [12]
  decrease of the average number of droplets: approximately 60%
  decrease of the partitioning coefficient (droplet/solution N-protein concentration ratio): 60–70%
  median droplet diameter: 1.1 µm
[10]; dose-dependent effect, 3 µM N-protein, 6 µM RNA, read-out: EC50 of inhibition of condensate formation (LLPS)
  EC50: ≤ 10 µM
SARS-CoV-2 (all strains)
  EC50: ~10 µM
HEL299 cells
  Cytotoxicity Cell Morphology (MCC): 20 μM
In vitro
  CC50: > 100 µM
TK- VZV strain 07-1 [3]
  EC50: > 4 µM

## COc1ccc(C(OC[C@H]2O[C@@H](n3ccc(N)nc3=O)[C@H](O)[C@@H]2O)(c2ccccc2)c2ccc(OC)cc2)cc1 [Compound 9b, 4-amino-1-((2R,3R,4S,5R)-5-((bis(4-methoxyphenyl)(phenyl)methoxy)methyl)-3,4-dihydroxytetrahydrofuran-2-yl)pyrimidin-2(1H)-one]
TK+ VZV strain OKA
  EC50: > 4 µM
[1]
  EC50: > 20 µM
[2]
  EC50: > 20 µM
HEL299 cells
  Cytotoxicity Cell Morphology (MCC): ≥20 μM
Vero cells
  Cytotoxicity Cell Morphology (MCC): 100 μM
TK- VZV strain 07-1 [3]
  EC50: > 20 µM

## COc1ccc(C(OC[C@H]2O[C@@H](n3ccc4nc5cc(O)ccc5n4c3=O)[C@H](O)[C@@H]2O)(c2ccccc2)c2ccc(OC)cc2)cc1 [Compound 3b, 2-((2R,3R,4S,5R)-5-((bis(4-methoxyphenyl)(phenyl)methoxy)methyl)-3,4-dihydroxytetrahydrofuran-2-yl)-7-hydroxybenzo[4,5]imidazo[1,2-c]pyrimidin-1(2H)-one]
HCoV 229E
  EC50: 4.1 ± 2 µM
HCoV OC43
  EC50: < 0.8 µM
HCoV NL63
  EC50: > 100 µM
RSV (Long)
  EC50: 5.7 ± 0.8 µM
[5]
  CC50 at 3 days: > 20 µM
[6]
  CC50 at 3 days: < 0.8 µM
TK+ VZV strain OKA
  EC50: > 4 µM
[1]
  EC50: > 20 µM
[2]
  EC50: > 20 µM
[9]
  IC50: 95 ± 4 µM
[10]; 20 µM compound
  effect on LLPS / condensates (summary in words): minor
HEL299 cells
  Cytotoxicity Cell Morphology (MCC): 20 μM
Vero cells
  Cytotoxicity Cell Morphology (MCC): 20 μM
TK- VZV strain 07-1 [3]
  EC50: > 4 µM

## COc1ccc(C(OC[C@H]2O[C@@H](n3ccc(N)nc3=O)C[C@@H]2O)(c2ccccc2)c2ccc(OC)cc2)cc1 [Compound 9a, 4-amino-1-((2R,4S,5R)-5-((bis(4-methoxyphenyl)(phenyl)methoxy)methyl)-4-hydroxytetrahydrofuran-2-yl)pyrimidin-2(1H)-one]
TK+ VZV strain OKA
  EC50: > 20 µM
[1]
  EC50: > 100 µM
[2]
  EC50: > 100 µM
[10]; 20 µM compound
  effect on LLPS / condensates (summary in words): reduced droplet density but did not prevent LLPS
[10]; [12]
  decrease in the partitioning coefficient: approximately 4 fold
HEL299 cells
  Cytotoxicity Cell Morphology (MCC): 100 μM
Vero cells
  Cytotoxicity Cell Morphology (MCC): >100 μM
TK- VZV strain 07-1 [3]
  EC50: > 20 µM

## CC(C)C(=O)OC[C@H]1O[C@@H](n2ccc(NO)nc2=O)[C@H](O)[C@@H]1O [Molnupiravir]
[1]
  EC50: 5.52 ± 0.28 µM
[7]
  EC50: 3.08 ± 2.12 µM
[8]
  EC50: 5.78 ± 0.29 µM
[2]
  EC50: 5.2 ± 0.23 µM
Vero cells
  Cytotoxicity Cell Morphology (MCC): >100 μM
In vitro
  CC50: > 100 µM

## COc1ccc(C(OC[C@H]2O[C@@H](n3ccc4nc5cc(OC)ccc5n4c3=O)[C@H](O)[C@@H]2O)(c2ccccc2)c2ccc(OC)cc2)cc1 [Compound 7b, 2-((2R,3R,4S,5R)-5-((bis(4-methoxyphenyl)(phenyl)methoxy)methyl)-3,4-dihydroxytetrahydrofuran-2-yl)-7-methoxybenzo[4,5]imidazo[1,2-c]pyrimidin-1(2H)-one]
TK+ VZV strain OKA
  EC50: 30.7 ± 4.68 µM
[4]
  CC50 at 3 days: 10.3 ± 5.63 µM
[1]
  EC50: > 20 µM
[2]
  EC50: > 20 µM
HEL299 cells
  Cytotoxicity Cell Morphology (MCC): ≥100 μM
Vero cells
  Cytotoxicity Cell Morphology (MCC): >100 μM
TK- VZV strain 07-1 [3]
  EC50: 7.13 ± 0.94 µM

## COc1ccc2c(c1)nc1ccn([C@@H]3O[C@H](CO)[C@@H](O)[C@H]3O)c(=O)n12 [Compound 8b, 2-((2R,3R,4S,5R)-3,4-dihydroxy-5-(hydroxymethyl)tetrahydrofuran-2-yl)-7-methoxybenzo[4,5]imidazo[1,2-c]pyrimidin-1(2H)-one]
TK+ VZV strain OKA
  EC50: > 20 µM
[1]
  EC50: > 20 µM
[2]
  EC50: > 20 µM
HEL299 cells
  Cytotoxicity Cell Morphology (MCC): 100 μM
Vero cells
  Cytotoxicity Cell Morphology (MCC): 100 μM
TK- VZV strain 07-1 [3]
  EC50: > 20 µM

## CCC(CC)COC(=O)[C@H](C)N[P@](=O)(OC[C@H]1O[C@@](C#N)(c2ccc3c(N)ncnn23)[C@H](O)[C@@H]1O)Oc1ccccc1 [Remdesivir, reference compound]
HCoV 229E
  EC50: 0.03 µM
HCoV OC43
  EC50: 0.03 µM
HCoV NL63
  EC50: 0.03 µM
RSV (Long)
  EC50: 0.02 µM
[5]
  CC50 at 3 days: > 10 µM
[6]
  CC50 at 3 days: > 10 µM
[1]
  EC50: 1.96 ± 1 µM
[7]
  EC50: 0.72 ± 0.15 µM
[8]
  EC50: 3.23 ± 0.61 µM
[2]
  EC50: 0.91 ± 0.17 µM
Vero cells
  Cytotoxicity Cell Morphology (MCC): ≥40 μM
In vitro
  CC50: ≥ 40 µM

## COc1ccc(C(OC[C@H]2O[C@@H](n3ccc4nc5cc(OC)ccc5n4c3=O)C[C@@H]2O)(c2ccccc2)c2ccc(OC)cc2)cc1 [Compound 7a, 2-((2R,4S,5R)-5-((bis(4-methoxyphenyl)(phenyl)methoxy)methyl)-4-hydroxytetrahydrofuran-2-yl)-7-methoxybenzo[4,5]imidazo[1,2-c]pyrimidin-1(2H)-one]
TK+ VZV strain OKA
  EC50: 8.15 ± 3.59 µM
[4]
  CC50 at 3 days: > 100 µM
[1]
  EC50: > 20 µM
[2]
  EC50: > 100 µM
[10]; 20 µM compound
  effect on LLPS / condensates (summary in words): caused no changes
HEL299 cells
  Cytotoxicity Cell Morphology (MCC): 100 μM
Vero cells
  Cytotoxicity Cell Morphology (MCC): >100 μM
TK- VZV strain 07-1 [11]
  selectivity ratio: > 30
TK- VZV strain 07-1 [3]
  EC50: 3.28 ± 2.23 µM

## O=c1[nH]c(=O)n([C@H]2C[C@H](O)[C@@H](CO)O2)cc1/C=C/Br [Brivudine, reference compound]
TK+ VZV strain OKA
  EC50: 0.1 ± 0.07 µM
[4]
  CC50 at 3 days: > 100 µM
HEL299 cells
  Cytotoxicity Cell Morphology (MCC): >100 μM
TK- VZV strain 07-1 [3]
  EC50: 0.14 ± 0.03 µM
